Test results reported in paper PMC11206507, “Unraveling the Impact of Six Pentacyclic Triterpenes Regulating Metabolic Pathways on Lung Carcinoma Cells” (Pharmaceuticals, 2024).
Read-outs that look alike come from different tables or passages of the source.

Assays:
NSCLC A549 cells [1] = test system: NSCLC A549 cells; design: method as in PMID 31338398; settings: cited from earlier work; for Cytotoxicity in A549 cells at the highest concentration: 100 μM; for IC50: 24 h, MTS/PMS, already obtained by the authors
[2] = test system: DNA damage machinery in A549 cells; test: DNA damage assay (anti-pH2AX / anti-pATM, flow cytometry); type: cell-based, human; settings: A549, IC50, 24 h, vs untreated cells
Experimental: (§1) We used flow cytometry to analyze several cellular mechanistic pathways in A549 cells after incubation with the triterpenes. In general, the cells were seeded in a 6-well plate at a density of 1 × 10^6 cells/mL and incubated for 24 h in supplemented DMEM. After 24 h, the A549 cells were treated with the triterpenes, following each manufacturer’s protocol. All of the following experiments were performed in a Muse® Cell Analyzer (EMD Millipore Corporation, Temecula, CA). The instrument was calibrated before each assay using the Muse® System Check Kit (Luminex MCH100101, Luminex Corporation). Each assay was run at least in two independent experiments. For each experiment, all samples were analyzed in triplicate in the instrument and the capillary line was washed after each sample run to avoid artifacts. In addition, to address the issue of cell doublets, we used the Muse® Cell Dispersal Reagent (Luminex Corporation) in all experiments. The concentration of the triterpenes in each assay was selected depending on the cellular concentration necessary to generate the gain signal in the instrument. This means that we attempted to select concentrations avoiding excessive cytotoxicity to accurately determine the respective signal from each assay.
Then, the A549 cells were scraped and centrifuged. The pellet was suspended in the assay buffer from the Luminex MCH200107 kit (Luminex Corporation). […]

MAPK/PI3K = MAPK/PI3K protein expression (dual pathway activation kit, flow cytometry); type: cell-based, human; settings: for MAPK/PI3K expression (in words): A549, IC25, 24 h, vs untreated cells; for MAPK/PI3K inhibition: summary, NSCLC A549 cells; on MAPK/PI3K inhibition: key: '✔' means induction; '-' means non-induction of any of the tested processes
Experimental: as §1
The Muse® P13K/MAPK Dual Pathway Activation Kit (Luminex MCH200108, Luminex Corporation) was used to determine MAPK/PI3K expression. After the incubation treatment with the triterpenes (IC25) for 24 h, the A549 cells were scraped, centrifuged, and washed once with 1× PBS. Next, the fixation buffer was incubated for 10 min and then the permeabilization buffer for another 10 min. Both incubations were performed on ice. Later, the antibody cocktail containing anti-phospho-Akt and anti-phospho-ERK1/2 was incubated for 30 min. Afterward, the cell pellet was washed and suspended in fresh assay buffer for measurement.

NSCLC A549 cells [3] = test: MTS/PMS cell viability, A549; type: cell-based, human; on TI > 1: key: '✔' means induction; '-' means non-induction of any of the tested processes
Experimental: A similar procedure was performed to determine the IC50 of the triterpenes in a normal lung fibroblast cell line (MRC5). In brief, the A549 and MRC5 cells were seeded into 96-well plates at a density of 1 × 10^5 cells/mL in supplemented DMEM medium. […] Then, 10 uL of the MTS reagent from the CellTiter 96® Aqueous Non-Radioactive Cell Proliferation Assay (Promega G5421) was added to each well. Then, we incubated the plates at 37 °C and in a 5% CO2 atmosphere for 1 h. After incubation, the absorbance was measured at 492 nm (n = 8) in a microplate reader spectrophotometer (Thermoscientific Multiskan FC). The cell viability was calculated as follows:% Viability = (sample absorbance − sample media absorbance)/(untreated cells’ absorbance − untreated cells’ media absorbance) × 100
(§2) The cell viability data were presented by plotting the values with an average of eight measurements for each treatment (mean ± SD) in at least three independent experiments. The IC50 values were calculated with the GraphPad Prism 9 software (Prism 9; GraphPad by Dotmatics, San Diego, CA, USA) using the dose–response curve.

LC3-II = test: Autophagy induction assay (LC3 antibody, flow cytometry); type: cell-based, human; settings: for Autophagic response (in words): A549, IC25, 24 h, vs controls (untreated ratio 0.8, starving ratio 1)
Experimental: as §1
The Muse® Autophagy LC3 Antibody-Based Kit (Luminex MCH200109, Luminex Corporation) was used to determine autophagy activation by monitoring lipidated LC3-II. After the A549 cells were treated with the triterpenes (IC25) for 24 h, autophagy reagent A was added for 4 h to prevent the lysosomal degradation of LC3-II. Then, the cells were detached and centrifuged. The pellet was suspended and incubated for 30 min in the autophagy reagent B containing anti-LC3-II mouse monoclonal antibody. Finally, the cell pellet was washed and suspended in fresh assay buffer for measurement. The autophagy response was calculated using the following formula:
Autophagy ratio = mean autophagy value of treated or untreated cells/mean autophagy value of starving cells.
The starving cells were labeled ‘No supp’ as non-supplemented cells. These served as the positive signal for autophagy and were designated a ratio of 1 since they were compared to themselves. A ratio ≥1 indicates the activation of the autophagic response.

[4] = MTS/PMS cell viability, MRC5; type: cell-based; settings: human, MRC5 normal lung fibroblast cells
Experimental: The 50% inhibitory concentration (IC50) of some of these triterpenes in A549 NSCLC cells were previously determined by us. A similar procedure was performed to determine the IC50 of the triterpenes in a normal lung fibroblast cell line (MRC5). In brief, the A549 and MRC5 cells were seeded into 96-well plates at a density of 1 × 10^5 cells/mL in supplemented DMEM medium. The cells were treated with specific concentrations (A549: 5, 10, 25, 50, 75, 100, 125,150, 175, 200 μM; MRC5: 5, 10, 25, 50, 75, 100 μM) of the triterpenes and incubated for 24 h. Then, 10 uL of the MTS reagent from the CellTiter 96® Aqueous Non-Radioactive Cell Proliferation Assay (Promega G5421) was added to each well. Then, we incubated the plates at 37 °C and in a 5% CO2 atmosphere for 1 h. After incubation, the absorbance was measured at 492 nm (n = 8) in a microplate reader spectrophotometer (Thermoscientific Multiskan FC). The cell viability was calculated as follows:% Viability = (sample absorbance − sample media absorbance)/(untreated cells’ absorbance − untreated cells’ media absorbance) × 100
as §2, with “curve. The data were normalized by the non-linear fit of the log (drug inhibition) vs. normalized response variable slope to obtain the best fit IC50 and R-squared values.” for “curve.”

RRM1 gene = test: RT-qPCR gene expression of ribonucleotide reductase M1; type: cell-based, human
Experimental: (§3) A549 cells were seeded into 6-well plates at a density of 1 × 10^6 cells/mL in supplemented DMEM. The cells were incubated with the triterpenes (IC25) for 24 h. Total RNA was extracted from the cells using the TRIzol reagent (Invitrogen Corporation, Carlsbad, CA, USA) according to the manufacturer’s instructions. The purity and concentration of RNA were assessed using a NanoDrop spectrophotometer (Thermo Fisher Scientific). cDNA was synthesized using the High-Capacity cDNA Reverse Transcription Kit (Applied Biosystems) according to the manufacturer’s instructions.
RT-qPCR was performed on a StepOnePlus® Real-Time PCR System (Thermo Fisher Scientific) using TaqMan Gene Expression Assays (Applied Biosystems) for PDL1 (CD274; Assay ID: Hs01125297_m1), ribonucleotide reductase (RR) M1 (Assay ID: Hs01040697_m1), and STAT3 (Assay ID: Hs01047586_g1). Each reaction consisted of 10 ng of cDNA, TaqMan Gene Expression Master Mix (Applied Biosystems), and TaqMan probes. The PCR cycling conditions were as follows: 95 °C for 10 min, followed by 40 cycles of 95 °C for 15 s and 60 °C for 60 s. The relative gene expression levels were calculated using the ΔΔCt method. […]
All RT-qPCR experiments were performed at least in triplicate. All data were expressed by plotting values with an average of four measurements for each treatment condition as the mean ± SD and analyzed with the software GraphPad Prism 9. […]

STAT3 gene = test: RT-qPCR gene expression of STAT3; type: cell-based, human
Experimental: as §3
(§4) RT-qPCR was performed on a StepOnePlus® Real-Time PCR System (Thermo Fisher Scientific) using TaqMan Gene Expression Assays (Applied Biosystems) for PDL1 (CD274; Assay ID: Hs01125297_m1), ribonucleotide reductase (RR) M1 (Assay ID: Hs01040697_m1), and STAT3 (Assay ID: Hs01047586_g1). Each reaction consisted of 10 ng of cDNA, TaqMan Gene Expression Master Mix (Applied Biosystems), and TaqMan probes. The PCR cycling conditions were as follows: 95 °C for 10 min, followed by 40 cycles of 95 °C for 15 s and 60 °C for 60 s. The relative gene expression levels were calculated using the ΔΔCt method. GAPDH (Assay ID: Hs02758991_g1) was used as the endogenous control for normalization.
(§5) All RT-qPCR experiments were performed at least in triplicate. All data were expressed by plotting values with an average of four measurements for each treatment condition as the mean ± SD and analyzed with the software GraphPad Prism 9. Statistical analysis was performed using one-way analysis of variance (ANOVA) to compare the mean value of each treated type of cells versus the control (untreated cells). The statistical significance defined by the software for p values was **** < 0.0001, *** from 0.001 to 0.0001, ** from 0.001 to 0.01, * from 0.01 to 0.05, and non-significant (ns) ≥ 0.05.

A549 cells [5] = test: Mitochondrial ROS production assay (DHE, flow cytometry); type: cell-based, human; settings: A549, IC25, 24 h; group average
Experimental: as §1
The production of reactive oxygen species (ROS) by mitochondria was determined using the Oxidative Stress Kit (Luminex MCH100111, Luminex Corporation). After the A549 cells were treated with the triterpenes (IC25) for 24 h, the cells were scraped and centrifuged. For ROS, the cell pellet was incubated with dihydroethidium (DHE) dye for 1 h at 37 °C.

PDL1 gene = test: RT-qPCR gene expression of PDL1; type: cell-based, human; settings: A549, IC25 (CisPt 25 μM), 24 h
Experimental: as §3, §4, §5

A549 cells [6] = test: Total ROS production assay (DCF); type: cell-based, human; settings: A549, IC25 (CisPt 25 μM), 24 h
Experimental: The production of total ROS was determined using the 2′,7′-dichlorodihydrofluorescein diacetate (DCF) fluorescent dye. A549 cells were seeded in a concentration of 1 × 10^5 cells/mL into black 96-well plates with a clear bottom. After 24 h, the cells were incubated with the triterpenes (IC25) and controls for 24 h. Then, 50 μL of DCF (10 μM) was added to each well and they were incubated for 1 h at room temperature. Then, the fluorescence of each well was measured (Ex/Em = 485/530 nm) in the Tecan® M200 plate reader.
This experiment was performed in triplicate. All data were expressed by plotting the values as an average of three measurements for each treatment condition as the mean ± SD and analyzed with the software GraphPad Prism 9. Statistical analysis was performed using one-way analysis of variance (ANOVA) to compare the mean value of each treated type of cells versus the control (untreated cells). The statistical significance defined by the software for p values was **** < 0.0001, *** from 0.001 to 0.0001, ** from 0.001 to 0.01, * from 0.01 to 0.05, and non-significant (ns) ≥ 0.05.

| Structure (SMILES) | Cytotoxicity in A549 cells at the highest concentration (NSCLC A549 cells [1]) | MAPK/PI3K expression (in words) (MAPK/PI3K) | MAPK/PI3K inhibition (MAPK/PI3K) | Autophagic response (in words) (LC3-II) | IC50 (NSCLC A549 cells [1]) [µM] | IC50 at 24 h [4] [µM] | other results |
| --- | --- | --- | --- | --- | --- | --- | --- |
| CC(C)CCC[C@@H](C)[C@H]1CC[C@H]2[C@@H]3CC=C4C[C@@H](O)CC[C@]4(C)[C@H]3CC[C@]12C [cholesterol, reference compound] | did not kill A549 cells |  |  |  |  |  |  |
| C[C@H]1[C@H](C)CC[C@]2(C(=O)O)CC[C@]3(C)C(=CC[C@@H]4[C@@]5(C)C[C@@H](O)[C@H](O)[C@@](C)(CO)[C@@H]5CC[C@]43C)[C@H]12 [AsA, asiatic acid] |  | did not affect the expression of MAPK/PI3K | - | induced an autophagic response similar to that of CisPt | 59 ± 6 | 38 ± 2 | Activation of the DNA damage machinery (in words) [2]: caused the activation of the DNA damage machinery; TI (NSCLC A549 cells [3]; TI = MRC5 IC50/A549 IC50, >1 means higher selectivity): 0.64; TI > 1 (NSCLC A549 cells [3]; summary, MRC5 vs A549): -; Autophagy inhibition (LC3-II; summary, NSCLC A549 cells): - |
| CC[C@H](CC[C@@H](C)[C@H]1CC[C@H]2[C@@H]3CC=C4C[C@@H](O)CC[C@]4(C)[C@H]3CC[C@]12C)C(C)C [β-sitosterol, reference compound] | did not kill A549 cells |  |  |  |  |  |  |
| CC1(C)CC[C@]2(C(=O)O)CC[C@]3(C)C(=CC[C@@H]4[C@@]5(C)CC[C@H](O)C(C)(C)[C@@H]5CC[C@]43C)[C@@H]2C1 [OleA, oleanolic acid] |  | did not affect the expression of MAPK/PI3K | - | inhibit the LC3-II activity | 43 ± 5 | 86 ± 2 | TI (NSCLC A549 cells [3]): 2; RRM1 gene expression (in words) (RRM1 gene; A549, IC25, 24 h, vs untreated cells): did not downregulate RR; RRM1 downregulation (RRM1 gene; summary, NSCLC A549 cells): -; STAT3 gene expression (in words) (STAT3 gene; A549, IC25, 24 h): did not inhibit; STAT3 downregulation (STAT3 gene; summary, NSCLC A549 cells): -; Amount of mROS, on average of the three named triterpenes, compared to the untreated cells (A549 cells [5]): 26.2% |
| N.N.[Cl][Pt][Cl] [CisPt, cis-diamminedichloroplatinum (II), reference compound] |  |  |  |  |  |  | PDL1 gene expression (in words) (PDL1 gene): clearly upregulated PDL1; Total ROS production (in words) (A549 cells [6]): not statistically significant |
